The values below come from US20260325533A1, “CDK INHIBITOR COMPOUNDS” (ALEKSIA THERAPEUTICS, INC., priority 2023, published 2026).

Read-outs that look alike come from different tables or passages of the source.

Type in all cases: biochemical
In experiment [1] the target is CDK6/CCND1 (Homo sapiens, UniProt Q00534). As to the kind of experiment: CDK6 homogeneous time-resolved fluorescence (HTRF) kinase assay. The note with it: CDK6/CCND, 1 mM ATP. The procedure, abridged: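 Assay conditions: HEPES buffer containing 10 mM MgCl2, 1 mM EGTA, 2 mM DTT, 0.01% Tween 20; 1 nM CDK6/CCND1, 50 nM peptide substrate, 1 mM ATP. Detection after 60 min reaction used 2 nM europium antibody with 340 nm excitation. Potency fitted from half-log series, 11 points.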
Sequence of CDK6/CCND1 (Q00534 whole entry): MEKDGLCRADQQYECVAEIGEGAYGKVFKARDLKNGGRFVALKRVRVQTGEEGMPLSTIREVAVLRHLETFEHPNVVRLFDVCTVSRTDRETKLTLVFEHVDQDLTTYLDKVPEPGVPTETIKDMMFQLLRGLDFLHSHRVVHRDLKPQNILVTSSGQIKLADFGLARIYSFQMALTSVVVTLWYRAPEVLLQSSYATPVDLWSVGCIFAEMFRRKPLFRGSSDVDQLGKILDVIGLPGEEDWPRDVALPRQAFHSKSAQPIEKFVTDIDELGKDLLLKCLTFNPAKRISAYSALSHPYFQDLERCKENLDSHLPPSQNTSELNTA
Sequence of CDK6/CCND1 (P24385 whole entry partner): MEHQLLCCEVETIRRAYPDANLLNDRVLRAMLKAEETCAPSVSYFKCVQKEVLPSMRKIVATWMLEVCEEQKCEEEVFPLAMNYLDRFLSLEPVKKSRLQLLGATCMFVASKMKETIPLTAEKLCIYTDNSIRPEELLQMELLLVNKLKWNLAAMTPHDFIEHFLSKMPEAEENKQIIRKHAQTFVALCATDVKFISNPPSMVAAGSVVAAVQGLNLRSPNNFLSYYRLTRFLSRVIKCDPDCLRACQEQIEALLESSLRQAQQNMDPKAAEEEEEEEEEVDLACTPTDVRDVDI

For experiment [2], the target named is CDK2/CCNE1 (Homo sapiens, UniProt P24941). As to the kind of experiment: CDK2 homogeneous time-resolved fluorescence (HTRF) kinase assay. The note with it: CDK2/CCNE. The procedure, abridged:
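TR-FRET read-out (665 nm, or 665/615 ratio) of Eu-antibody detection of phospho-4E-BP1 (Thr37/46) ULight peptide. Enzyme 3 nM, ATP 1 mM, peptide 50 nM, 1% DMSO; 60 min reaction at 23 °C after 20 min compound preincubation. IC50 from 11-point half-log titrations, top typically 10 μM.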

Experiment [3] deals with CDK4/CCND3 (Homo sapiens, UniProt P11802). As to the kind of experiment: CDK4 homogeneous time-resolved fluorescence (HTRF) kinase assay. The note with it: CDK4/CCND. The procedure, abridged:
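TR-FRET read (665 nm, or 665/615 ratio) of 4E-BP1 Thr37/46 phosphorylation by 1.5 nM CDK4/CCND3 at 1 mM ATP, 50 nM ULight peptide, 1% DMSO. Reaction ran 60 min at 23 °C after 20 min compound–enzyme preincubation. IC50 from 11-point half-log dilutions, top 10 μM.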

The target of experiment [4] is CDK1/CCNB1 (Homo sapiens, UniProt P06493). The experiment in a line: CDK1 homogeneous time-resolved fluorescence (HTRF) kinase assay. The note with it: CDK1/CCNB. The procedure, abridged: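 Read-out: TR-FRET (Eu anti-phospho-4E-BP1 Thr37/46 antibody, 2 nM; 665 nm or 665/615 ratio) after 60 min phosphorylation of 50 nM ULight-peptide by 0.5 nM CDK1/CCNB1 at 1 mM ATP, 23 °C. Compound preincubated 20 min with enzyme; 1% DMSO.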
Sequence of CDK1/CCNB1 (P06493 whole entry): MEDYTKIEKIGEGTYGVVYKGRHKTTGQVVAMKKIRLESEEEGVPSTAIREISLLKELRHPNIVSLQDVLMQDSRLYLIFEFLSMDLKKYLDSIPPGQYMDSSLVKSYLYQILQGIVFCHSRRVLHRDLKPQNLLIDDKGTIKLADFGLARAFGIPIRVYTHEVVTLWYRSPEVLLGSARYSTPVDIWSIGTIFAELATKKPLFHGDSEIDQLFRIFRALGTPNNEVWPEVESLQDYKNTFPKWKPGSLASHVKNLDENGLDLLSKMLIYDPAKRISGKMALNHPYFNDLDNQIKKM
Sequence of CDK1/CCNB1 (P14635 whole entry partner): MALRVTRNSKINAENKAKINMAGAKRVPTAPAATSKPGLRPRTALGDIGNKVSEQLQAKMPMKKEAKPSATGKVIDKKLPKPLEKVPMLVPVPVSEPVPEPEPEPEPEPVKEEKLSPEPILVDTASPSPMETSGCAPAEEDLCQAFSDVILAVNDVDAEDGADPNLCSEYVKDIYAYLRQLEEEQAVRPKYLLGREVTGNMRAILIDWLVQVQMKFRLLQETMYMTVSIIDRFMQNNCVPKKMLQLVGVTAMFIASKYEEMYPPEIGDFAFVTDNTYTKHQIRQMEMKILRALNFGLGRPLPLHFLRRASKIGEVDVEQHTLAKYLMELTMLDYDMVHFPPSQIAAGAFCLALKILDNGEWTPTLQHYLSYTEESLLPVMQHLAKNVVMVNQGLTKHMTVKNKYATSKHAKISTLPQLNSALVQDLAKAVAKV

Setting [5] is: 25-250 nM, read-out: CDK6/CCND IC50, 25-250 nM.
The mark [6] stands for this setting: <25 nM, read-out: CDK2/CCNE IC50, <25 nM.
[7] abbreviates: 25-250 nM, read-out: CDK4/CCND IC50, 25-250 nM.
The mark [8] stands for this setting: 25-250 nM, read-out: CDK1/CCNB IC50, 25-250 nM.
Where [9] appears, read: >250 nM, read-out: CDK6/CCND IC50, >250 nM.
Where [10] appears, read: >250 nM, read-out: CDK4/CCND IC50, >250 nM.
[11] abbreviates: >250 nM, read-out: CDK1/CCNB IC50 >250 nM.
Setting [12] is: 25-250 nM, read-out: CDK2/CCNE IC50, 25-250 nM.

Sequence of CDK4/CCND3 (P11802 whole entry): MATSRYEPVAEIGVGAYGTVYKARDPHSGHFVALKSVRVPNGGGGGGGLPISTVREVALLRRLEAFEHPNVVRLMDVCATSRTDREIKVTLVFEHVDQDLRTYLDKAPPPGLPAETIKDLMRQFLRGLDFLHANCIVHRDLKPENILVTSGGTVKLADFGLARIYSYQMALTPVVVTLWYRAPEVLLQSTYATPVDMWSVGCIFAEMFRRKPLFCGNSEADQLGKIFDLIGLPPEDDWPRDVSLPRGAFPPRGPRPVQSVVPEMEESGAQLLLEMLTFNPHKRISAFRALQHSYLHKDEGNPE
Sequence of CDK4/CCND3 (P30281 whole entry partner): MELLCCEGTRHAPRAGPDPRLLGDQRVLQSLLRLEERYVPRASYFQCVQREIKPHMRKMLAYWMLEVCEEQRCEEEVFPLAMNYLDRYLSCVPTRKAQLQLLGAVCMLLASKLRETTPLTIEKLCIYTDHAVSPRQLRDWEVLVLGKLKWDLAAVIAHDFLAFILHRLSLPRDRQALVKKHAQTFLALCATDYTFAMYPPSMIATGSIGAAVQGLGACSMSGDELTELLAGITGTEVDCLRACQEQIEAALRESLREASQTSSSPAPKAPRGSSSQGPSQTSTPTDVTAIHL

Regarding `CC1(C)C(=O)Nc2cc(C#Cc3nccc4cnc(Nc5ccc([S@@](=N)(=O)NC6CCC6)cc5)cc34)ccc21` [Example 687, (S)-N-cyclobutyl-4-((5-((3,3-dimethyl-2-oxoindolin-6-yl)ethynyl)-2,6-naphthyridin-3-yl)amino)benzenesulfonimidamide], the IC50 was 25 to 250 nM in experiment [1] (setting [5]), less than 25 nM in experiment [2] (setting [6]), 25 to 250 nM in experiment [3] (setting [7]) and 25 to 250 nM in experiment [4] (setting [8]).
Consider `CNS(=O)(=O)c1ccc(Nc2cc3c(-c4ccc5c(cnn5CC(O)(C(F)(F)F)C(F)(F)F)c4C)nccc3cn2)cc1` [Example 696, N-methyl-4-((5-(4-methyl-1-(3,3,3-trifluoro-2-hydroxy-2-(trifluoromethyl)propyl)-1H-indazol-5-yl)-2,6-naphthyridin-3-yl)amino)benzenesulfonamide], for which the IC50 was greater than 250 nM in experiment [1] (setting [9]), less than 25 nM in experiment [2] (setting [6]), greater than 250 nM in experiment [3] (setting [10]) and greater than 250 nM in experiment [4] (setting [11]).
In the case of `Cc1c(-c2nccc3cnc(Nc4ccc(S(=O)(=O)N(c5ncccn5)C5CC5)cc4)cc23)ccc2c1cnn2CC(O)(C(F)(F)F)C(F)(F)F` [Example 698, N-cyclopropyl-4-((5-(4-methyl-1-(3,3,3-trifluoro-2-hydroxy-2-(trifluoromethyl)propyl)-1H-indazol-5-yl)-2,6-naphthyridin-3-yl)amino)-N-(pyrimidin-2-yl)benzenesulfonamide], the IC50 in experiment [1] (setting [9]) was greater than 250 nM; in experiment [2] (>250 nM, read-out: CDK2/CCNE IC50, >250 nM), greater than 250 nM; in experiment [3] (setting [10]), greater than 250 nM; in experiment [4] (setting [11]) it was greater than 250 nM.
In the case of `CS(=O)(=O)c1ccc(Nc2cc3c(C#CC4(O)CCCNC4)nccc3cn2)cc1` (stereo not shown) [Example 699, 3-((7-((4-(methylsulfonyl)phenyl)amino)-2,6-naphthyridin-1-yl)ethynyl)piperidin-3-ol], the IC50 in experiment [1] (setting [9]) is greater than 250 nM; in experiment [2] (setting [6]), less than 25 nM; in experiment [3] (setting [7]), 25 to 250 nM; in experiment [4] (setting [11]), greater than 250 nM.
As for `COc1cnc(NS(=O)(=O)c2ccc(Nc3cc4c(-c5ccc6c(cnn6CC(O)(C(F)(F)F)C(F)(F)F)c5C)nccc4cn3)cc2)cc1N1CCOCC1` [Example 700, N-(5-methoxy-4-morpholinopyridin-2-yl)-4-((5-(4-methyl-1-(3,3,3-trifluoro-2-hydroxy-2-(trifluoromethyl)propyl)-1H-indazol-5-yl)-2,6-naphthyridin-3-yl)amino)benzenesulfonamide], the IC50 in experiment [1] (setting [9]) was greater than 250 nM; in experiment [2] (setting [6]) it was less than 25 nM; in experiment [3] (setting [10]) it was greater than 250 nM; in experiment [4] (setting [11]), greater than 250 nM.
For the molecule `Cc1c(-c2nccc3cnc(Nc4ccc(NS(=O)(=O)c5ncccn5)cc4)cc23)ccc2c1cnn2CC(C)(C)O` [Example 705, N-(4-((5-(1-(2-hydroxy-2-methylpropyl)-4-methyl-1H-indazol-5-yl)-2,6-naphthyridin-3-yl)amino)phenyl)pyrimidine-2-sulfonamide], the IC50 was 25 to 250 nM in experiment [1] (setting [5]), less than 25 nM in experiment [2] (setting [6]), 25 to 250 nM in experiment [3] (setting [7]) and greater than 250 nM in experiment [4] (setting [11]).
In the case of `Cc1ccc(NS(=O)(=O)c2ccc(Nc3cc4c(-c5ccc6c(cnn6CC(O)(C(F)(F)F)C(F)(F)F)c5C)nccc4cn3)cc2)cc1C(C)(C)O` [Example 708, N-(3-(2-hydroxypropan-2-yl)-4-methylphenyl)-4-((5-(4-methyl-1-(3,3,3-trifluoro-2-hydroxy-2-(trifluoromethyl)propyl)-1H-indazol-5-yl)-2,6-naphthyridin-3-yl)amino)benzenesulfonamide], the IC50 is greater than 250 nM in experiment [1] (setting [9]), 25 to 250 nM in experiment [2] (setting [12]), greater than 250 nM in experiment [3] (setting [10]) and greater than 250 nM in experiment [4] (setting [11]).
Consider `Cc1c(-c2nccc3cnc(Nc4ccc(S(=O)(=O)Nc5ccccn5)cc4)cc23)ccc2c1cnn2CC(O)(C(F)(F)F)C(F)(F)F` [Example 716, 4-((5-(4-methyl-1-(3,3,3-trifluoro-2-hydroxy-2-(trifluoromethyl)propyl)-1H-indazol-5-yl)-2,6-naphthyridin-3-yl)amino)-N-(pyridin-2-yl)benzenesulfonamide], for which the IC50 in experiment [1] (setting [9]) is greater than 250 nM; in experiment [2] (setting [6]), less than 25 nM; in experiment [3] (setting [10]) it was greater than 250 nM; in experiment [4] (setting [11]) it was greater than 250 nM.
For the molecule `CC[C@@H](C)NS(=O)(=O)c1ccc(Nc2cc3c(-c4ccc5c(cnn5CC(C)(C)O)c4C)nccc3cn2)cc1` [Example 721, (R)-N-(sec-butyl)-4-((5-(1-(2-hydroxy-2-methylpropyl)-4-methyl-1H-indazol-5-yl)-2,6-naphthyridin-3-yl)amino)benzenesulfonamide], the IC50 in experiment [1] (setting [9]) is greater than 250 nM; in experiment [2] (setting [6]), less than 25 nM; in experiment [3] (setting [10]), greater than 250 nM; in experiment [4] (setting [11]), greater than 250 nM.
On to `CN1CCN(c2cc(Nc3cc4c(C#Cc5ccc(=O)[nH]n5)nccc4cn3)cnc2O)CC1` [Example 723, 6-((7-((6-hydroxy-5-(4-methylpiperazin-1-yl)pyridin-3-yl)amino)-2,6-naphthyridin-1-yl)ethynyl)pyridazin-3(2H)-one], for which the IC50 in experiment [1] (setting [9]) was greater than 250 nM; in experiment [2] (setting [12]), 25 to 250 nM; in experiment [3] (setting [10]), greater than 250 nM; in experiment [4] (setting [11]) it was greater than 250 nM.
Take `Cc1c(-c2nccc3cnc(Nc4ccc([S@@](C)(=N)=O)cc4)cc23)ccc2c1cnn2CC(O)(C(F)(F)F)C(F)(F)F` [Example 724, (S)-1,1,1,3,3,3-hexafluoro-2-((4-methyl-5-(7-((4-(S-methylsulfonimidoyl)phenyl)amino)-2,6-naphthyridin-1-yl)-1H-indazol-1-yl)methyl)propan-2-ol]: the IC50 in experiment [1] (setting [5]) is 25 to 250 nM; in experiment [2] (setting [6]), less than 25 nM; in experiment [3] (setting [7]), 25 to 250 nM; in experiment [4] (setting [11]), greater than 250 nM.
For the molecule `Cc1c(-c2nccc3cnc(Nc4ccc([S@](C)(=N)=O)cc4)cc23)ccc2c1cnn2CC(O)(C(F)(F)F)C(F)(F)F` [Example 725, (R)-1,1,1,3,3,3-hexafluoro-2-((4-methyl-5-(7-((4-(S-methylsulfonimidoyl)phenyl)amino)-2,6-naphthyridin-1-yl)-1H-indazol-1-yl)methyl)propan-2-ol], the IC50 in experiment [1] (setting [5]) was 25 to 250 nM; in experiment [2] (setting [6]), less than 25 nM; in experiment [3] (setting [7]), 25 to 250 nM; in experiment [4] (setting [11]), greater than 250 nM.
Regarding `Cc1c(-c2nccc3cnc(Nc4ccc(S(=O)(=O)N(C)c5ncccn5)cc4)cc23)ccc2c1cnn2CC(O)(C(F)(F)F)C(F)(F)F` [Example 732, N-methyl-4-((5-(4-methyl-1-(3,3,3-trifluoro-2-hydroxy-2-(trifluoromethyl)propyl)-1H-indazol-5-yl)-2,6-naphthyridin-3-yl)amino)-N-(pyrimidin-2-yl)benzenesulfonamide], the IC50 was greater than 250 nM in experiment [1] (setting [9]), 25 to 250 nM in experiment [2] (setting [12]), greater than 250 nM in experiment [3] (setting [10]) and greater than 250 nM in experiment [4] (setting [11]).
On to `CCN(c1ncccn1)S(=O)(=O)c1ccc(Nc2cc3c(-c4ccc5c(cnn5CC(C)(C)O)c4C)nccc3cn2)cc1` [Example 733, N-ethyl-4-((5-(1-(2-hydroxy-2-methylpropyl)-4-methyl-1H-indazol-5-yl)-2,6-naphthyridin-3-yl)amino)-N-(pyrimidin-2-yl)benzenesulfonamide], for which the IC50 in experiment [1] (setting [5]) was 25 to 250 nM; in experiment [2] (setting [6]), less than 25 nM; in experiment [3] (setting [10]) it was greater than 250 nM; in experiment [4] (setting [11]), greater than 250 nM.
For `Cc1c(-c2nccc3cnc(Nc4ccc(NS(=O)(=O)c5cccc(N6CCNCC6)c5)cc4)cc23)ccc2c1cnn2CC(C)(C)O` [Example 752, N-(4-((5-(1-(2-hydroxy-2-methylpropyl)-4-methyl-1H-indazol-5-yl)-2,6-naphthyridin-3-yl)amino)phenyl)-3-(piperazin-1-yl)benzenesulfonamide], the IC50 is greater than 250 nM in experiment [1] (setting [9]), less than 25 nM in experiment [2] (setting [6]), greater than 250 nM in experiment [3] (setting [10]) and greater than 250 nM in experiment [4] (setting [11]).
Take `Cc1c(-c2nccc3cnc(Nc4ccc(S(=O)(=O)Nc5ccc(N(C)C)nn5)cc4)cc23)ccc2c1cnn2CC(C)(C)O` [Example 765, N-(6-(dimethylamino)pyridazin-3-yl)-4-((5-(1-(2-hydroxy-2-methylpropyl)-4-methyl-1H-indazol-5-yl)-2,6-naphthyridin-3-yl)amino)benzenesulfonamide]: the IC50 in experiment [1] (setting [5]) is 25 to 250 nM; in experiment [2] (setting [6]), less than 25 nM; in experiment [3] (setting [7]), 25 to 250 nM; in experiment [4] (setting [8]), 25 to 250 nM.
